“Also recorded” adds a separate entry of the source.
How the values were obtained:
bovine cornea [1] = assay: Whole eye experiment: Ca^2+ extraction from cornea, analysed by atomic absorption spectrometry; conditions: chelator 1 mg mL^−1 in PBS pH 7.4 ± 0.2, 3 h exposure of whole bovine eye cornea, 34 °C, n = 3; PBS alone 54.67 ± 7.04 ppm
Procedure: Calcium ion analysis was conducted using a novAA 350 system with […] software, version 4.5.0 (Analytik JENA, Germany). […] Quantitation achieved by reference to a calibration curve produced from Ca^2+ standards in ultrapure water incorporating 5% w/v lanthanum chloride as a releasing agent.

bovine cornea [2] = assay: Transepithelial electrical resistance (TEER) of cornea in Ussing chambers; conditions: chelator 1 mg mL^−1 in PBS in donor chamber, 120 min, 34 °C, baseline deducted; initial 2.28 ± 0.06, PBS control 1.93 ± 0.04
bovine cornea epithelium = assay: Corneal integrity: fluorescence microscopy of DAPI-stained cornea sections after exposure; conditions: chelator 1 mg mL^−1 in PBS pH 7.4 ± 0.2, 3 h exposure; PBS shows no disruption
Procedure: A Franz diffusion cell donor chamber was placed on the cornea as a means to contain the dose; the setup was wrapped in cling-film ensuring a good seal between the donor chamber and the cornea; these were placed in a water bath at 34 ± 1 °C. Individual eyes were exposed to PBS or solutions of EDTA, EGTA or EDDS at 1 mg mL^−1 in PBS, all at pH 7.4 ± 0.2 by placing 1 mL solution onto the cornea.
From the above experiment, corneas were dissected after exposure, and sections were prepared for microscopy by setting cornea segments in OCT, quick freezing on dry ice and subsequent sectioning. […] Specimens were stained using Vectashield with DAPI mounting medium, and a glass coverslip applied. All cornea sections were examined within seven days of preparation using an AXIOCAM MRm 1.3 MP digital camera attached to a Zeiss AXIO Imager A1 fluorescent microscope, using AXIO Vs 40 V.4.8.2.0 software (Zeiss, Oberkochen, Germany). A 10× magnification eyepiece together with a 5× magnification objective lens was employed, and DAPI fluorescence filter was selected.

[3] = Corneal permeability of riboflavin in Franz diffusion cells; type: in vitro ADME, bovine; set-up: Steady-state flux of riboflavin / Papp at 240 min: dose or concentration left out as unconfirmed; conditions: bovine, pH 7.4
Procedure: (§1) Analysis was conducted using a PerkinElmer series 200 HPLC system comprising of 785 A UV-vis detector, series 200 quaternary pump and series 200 autosampler (PerkinElmer Inc., UK), Hamilton PRP-1 reversed phase column, 150 mm × 4.1 mm, 10 μm (part number: 79425) and data acquisition software ([…], version 4.09, SRI Inc., USA). […] Bovine corneas were mounted in Franz diffusion cells (FDC), epithelium side facing the donor compartment. The receiver compartment was filled with pre-warmed and degassed PBS (16.5 mL). […] Riboflavin is known to be photodegradable ([Terekhova et al., 2011]), therefore the whole experiment was shielded with aluminium foil. Sink conditions were employed with 0.4 mL aliquots taken every 60 min for 240 min. HPLC analysis was carried out immediately after all samples had been collected to avoid drug degradation.

bovine cornea [4] = assay: as above; type: in vitro ADME; set-up: Steady-state flux of riboflavin / Papp at 240 min: dose or concentration left out as unconfirmed
Procedure: as §1

bovine cornea [5] = assay: Cornea extracts: riboflavin absorbed into cornea, ethanol extraction and HPLC; type: in vitro ADME; conditions: n = 3; for Riboflavin pg mg^−1 cornea: riboflavin in PBS pH 7.4 ± 0.2 without chelator
Procedure: Analysis was conducted using a PerkinElmer series 200 HPLC system comprising of 785 A UV–vis detector, series 200 quaternary pump and series 200 autosampler (PerkinElmer Inc., UK), Hamilton PRP-1 reversed phase column, 150 mm × 4.1 mm, 10 μm (part number: 79425) and data acquisition software (Peaksimple, version 4.09, SRI Inc., USA). […] Isocratic conditions were used at 25 °C with the mobile phase comprising of 20% ethanol and 80% ion-pair buffer, flow rate 0.8 mL min^−1, 10 μL injection volume, UV detector at 267 nm corresponding to riboflavin absorption λmax, a retention time of 3.05 min. Quantitation was achieved by reference to a calibration curve produced from riboflavin standards in PBS, pH 7.4 ± 0.2 at concentrations ranging from 0.01 to 25 μg mL^−1 (r^2 = 0.9996).
Corneas from the riboflavin permeability experiment were trimmed of sclera, gently blotted with tissue paper, weighed and placed in glass vials to which 5 mL absolute ethanol was added to extract absorbed riboflavin. Differences in its accumulation within the corneas between different solutions were compared. The vials were stored at room temperature shielded from light for three days. From these vials, 1 mL of extract solvent was centrifuged at 10,000 rpm for 10 min, and the supernatant transferred to autosample vials for HPLC analysis.

Papp at 240 min [3] [×10⁻⁶ cm/s] | concentration of riboflavin in the receiving solution at 240 min (bovine cornea [4]; riboflavin 0.1 mg mL^−1 in PBS pH 7.4 without chelator, 34 °C) [ng/mL] | Steady-state flux of riboflavin (bovine cornea [4]; riboflavin solution in PBS without chelator) [µmol/min] | mean amount of riboflavin extracted from cornea (bovine cornea [5]; corneas after permeability experiment, riboflavin 0.1 mg mL^−1 in PBS without chelator) [ng] | Riboflavin pg mg^−1 cornea (bovine cornea [5]) [pg/mg] | Riboflavin pg mg^−1 cornea (bovine cornea [5]; listed as riboflavin) [pg/mg] | SMILES | calcium sequestering performance from bovine cornea (Ca^2+ concentration in solution) (bovine cornea [1]) [ppm] | TEER value after 2 h (bovine cornea [2]) [kΩ cm^2] | histological changes of corneal epithelium (bovine cornea epithelium)
– | – | – | – | – | – | O=C(O)CC(NCCNC(CC(=O)O)C(=O)O)C(=O)O (stereo not drawn) [EDDS, ethylenediamine-N,N′-disuccinic acid] | 87.60 ± 3.30 | 1.62 ± 0.04 | some swelling with voids throughout this layer
– | – | – | – | – | – | O=C(O)CN(CCN(CC(=O)O)CC(=O)O)CC(=O)O [EDTA, Ethylenediaminetetraacetic acid] | 98.97 ± 9.86 | 1.38 ± 0.03 | some swelling with voids throughout this layer; also recorded: perforation seems to penetrate the whole of the epithelium
– | – | – | – | – | – | O=C(O)CN(CCOCCOCCN(CC(=O)O)CC(=O)O)CC(=O)O [EGTA, ethylene glycol-bis(2-aminoethylether)-N,N,N′,N′-tetraacetic acid] | 119.57 ± 27.28 | 1.42 ± 0.02 | intense disruption to the superficial epithelial layers and a relatively undisturbed basal layer
1940 ± 325 | 5.74 ± 0.96 | 0.0478 ± 0.0080 | 50.41 ± 2.80 | 62.46 ± 0.98 | 62.46 | Cc1cc2nc3c(=O)[nH]c(=O)nc-3n(C[C@H](O)[C@H](O)[C@H](O)CO)c2cc1C [Riboflavin, riboflavin] | – | – | –

Reference: PMC4111866, “Enhancement in corneal permeability of riboflavin using calcium sequestering compounds” (International Journal of Pharmaceutics, 2014)
